This is an account of results in ChEMBL document CHEMBL5550207, “Alkaline Phosphatase Activated Near-Infrared Frequency Upconversion Photosensitizers for Tumor Photodynamic Therapy” (J Med Chem, 2024).

Series [1] deals with A549. Kind of series: Phototoxicity in human A549 cells assessed as cell viability at upto 20 uM pre-irradiated with 808nm laser 1.5 W/cm2 for 10 mins and measured after 12 hrs by MTT assay relative to control. In kind it is functional. The settings on record: time 730 min, 12.17 h, up to 20 µM. Background: Tetrazolium assays rely on reduction of a dye to a coloured formazan, in cell work by metabolically active cells.

The subject of series [2] is A549. Kind of series: Phototoxicity in human A549 cells assessed as reduction in cell viability at upto 20 uM preincubated for 1 hr followed by light irradiation with 808nm laser 1.5 W/cm2 for 10 mins and measured after 4 hrs by Live/Dead dye staining assay. In kind it is functional, cell-based. The following applies: time 310.0 min.
The subject of series [3] is A549. Description: Induction of apoptosis in human A549 cells under light irradiation with 808nm laser 1.5 W/cm2 for 10 mins by annexin V-FITC/propidium iodide staining based flow cytometry. The series is classed as functional, cell-based.
For series [4], the system named is A549. Kind of series: Phototoxicity in human A549 cells assessed as cell viability at 10 uM pre-irradiated with 808nm laser 1.5 W/cm2 for 10 mins and measured after 12 hrs by MTT assay relative to control. The following applies: A549, light or radiation study, 12.17 h, time 730 min, read-out: Activity. The series is classed as functional.
Series [5] concerns A549. Description: Induction of singlet oxygen production in human A549 cells at 10 uM preincubated for 65 mins followed by light irradiation with 808nm laser 1.5 W/cm2 for 10 mins by DCF-DA staining based confocal microscopy analysis. The series is classed as functional, cell-based. The following applies: time 75.0 min.
Series [6] concerns A549. Description: Phototoxicity in human A549 cells assessed as cell viability at 20 uM pre-irradiated with 808nm laser 1.5 W/cm2 for 10 mins and measured after 12 hrs by MTT assay relative to control. In kind it is functional. The following applies: A549, light or radiation study, 12.17 h, time 730 min, read-out: Activity.
Series [7] concerns A549. Kind of series: Antitumor activity against human A549 cells xenografted in BALB/c mouse model assessed as reduction in fluorescence in liver at 300 uM, iv measured after 120 mins. The series is classed as functional, organism-based. (A xenograft is tissue or cells of one species grown in another, often human tumour cells in immunodeficient mice.)
For series [8], the system named is A549. Kind of series: Photosensitization activity against human A549 cells overexpressing ALP assessed as increase in fluorescence intensity at 10 uM measured upto 60 mins by confocal fluorescent imaging based analysis. The series is classed as functional, cell-based.
Series [9] is described as follows: Toxicity in BALB/c mouse assessed as effect on heart at 300 uM, iv pre-irradiated with 808nm laser 1.5 W/cm2 for 10 mins and measured after 14 days by H and E staining based analysis. The series is classed as organism-based. The settings on record: in vivo, 336 h, time 14 day.
Series [10] has as its system A549. Description: Phototoxicity in human A549 cells assessed as reduction in cell viability at 10 uM preincubated for 1 hr followed by light irradiation with 808nm laser 1.5 W/cm2 for 10 mins and measured after 4 hrs in presence of Na3VO4 by Live/Dead dye staining assay. The series is classed as functional, cell-based. The settings on record: time 310.0 min.
In series [11] the test system is A549. Kind of series: Induction of singlet oxygen production in human A549 cells assessed as increase in fluorescent signal at 10 uM preincubated for 65 mins followed by light irradiation with 808nm laser 1.5 W/cm2 for 10 mins in presence of Na3VO4 by DCF-DA staining based confocal microscopy analysis. The series is classed as functional, cell-based. The settings on record: time 75.0 min.

Series [12] can be described thus: Induction of singlet oxygen production of the compound assessed as decrease in DPBF absorbance under laser irradiation with 808nm laser 1.5 W/cm2 for upto 15 mins in presence of alkaline phosphatase. In kind it is physicochemical. The following applies: isolated protein, 0.25 h.
For series [13], the system named is A549. Description: Phototoxicity in human A549 cells assessed as decrease in survival rate at 10 uM pre-irradiated with 808nm laser 1.5 W/cm2 for 10 mins and measured after 12 hrs by MTT assay relative to control. The settings on record: A549, light or radiation study, 12.17 h, time 730 min, read-out: Survival. The series is classed as functional.
For series [14], the system named is A549. Description: Cytotoxicity against human A549 cells assessed as survival rate measured after 12 hrs relative to control. The series is classed as functional.
For series [15], the system named is A549. Description: Antitumor activity against human A549 cells xenografted in BALB/c mouse model assessed as decrease in fluorescence signal at 300 uM, iv measured upto 120 mins. The series is classed as functional, organism-based.
The nature of series [16]: Toxicity in BALB/c mouse assessed as effect on liver at 300 uM, iv pre-irradiated with 808nm laser 1.5 W/cm2 for 10 mins and measured after 14 days by H and E staining based analysis. The series is classed as organism-based. The settings on record: in vivo, 336 h, time 14 day.
Series [17] relates to A549. Description: Photosensitization activity against human A549 cells overexpressing ALP assessed as increase in fluorescence intensity at 10 uM pretreated with Na3VO4 for 1 hr followed by compound addition and measured upto 60 mins by confocal fluorescent imaging based analysis. The series is classed as functional, cell-based. The settings on record: time <= 60.0 […].
For series [18], the system named is A549. Description: Antitumor activity against human A549 cells xenografted in BALB/c mouse model assessed as inhibition of tumor growth at 300 uM, iv pre-irradiated with 808nm laser 1.5 W/cm2 for 10 mins and measured daily for 14 days. In kind it is functional, organism-based. The following applies: time 14.0 day.
A short description of series [19]: Toxicity in BALB/c mouse assessed as effect on lung at 300 uM, iv pre-irradiated with 808nm laser 1.5 W/cm2 for 10 mins and measured after 14 days by H and E staining based analysis. The series is classed as organism-based. The settings on record: in vivo, 336 h, time 14 day.
For series [20], the system named is A549. Kind of series: Antitumor activity against human A549 cells xenografted in BALB/c mouse model assessed as reduction in fluorescence in lung at 300 uM, iv measured after 120 mins. In kind it is functional, organism-based.
Series [21] is described as follows: Toxicity in BALB/c mouse assessed as effect on spleen at 300 uM, iv pre-irradiated with 808nm laser 1.5 W/cm2 for 10 mins and measured after 14 days by H and E staining based analysis. The series is classed as organism-based. The settings on record: in vivo, 336 h, time 14 day.
Series [22] concerns HeLa. Kind of series: Phototoxicity in human HeLa cells assessed as decrease in survival rate at upto 10 uM pre-irradiated with 808nm laser 1.5 W/cm2 for 10 mins and measured after 12 hrs by MTT assay. The series is classed as functional, cell-based. The following applies: time 730.0 min.
Series [23] in a line: Toxicity in BALB/c mouse assessed as effect on body weight loss at 300 uM, iv pre-irradiated with 808nm laser 1.5 W/cm2 for 10 mins and measured after 14 days by H and E staining based analysis. In kind it is organism-based. The following applies: in vivo, 336 h, time 14 day.
Series [24] concerns HeLa. Description: Cytotoxicity against human HeLa cells assessed as survival rate measured after 12 hrs relative to control. The series is classed as functional.
Series [25] concerns A549. Description: Antimigratory activity against human A549 cells measured upto 18 hrs by wound healing assay. In kind it is functional, cell-based.
The nature of series [26]: Toxicity in BALB/c mouse assessed as effect on tumor at 300 uM, iv pre-irradiated with 808nm laser 1.5 W/cm2 for 10 mins and measured after 14 days by H and E staining based analysis. The following applies: in vivo, 336 h, time 14 day. The series is classed as organism-based.
In series [27] the test system is A549. Kind of series: Phototoxicity in human A549 cells assessed as decrease in survival rate at upto 10 uM pre-irradiated with 808nm laser 1.5 W/cm2 for 10 mins and measured after 12 hrs by MTT assay. The series is classed as functional, cell-based. The following applies: time 730.0 min.
The test system of series [28] is HeLa. Kind of series: Phototoxicity in human HeLa cells assessed as decrease in survival rate at 10 uM pre-irradiated with 808nm laser 1.5 W/cm2 for 10 mins and measured after 12 hrs by MTT assay relative to control. The following applies: light or radiation study, 12.17 h, time 730 min, read-out: Survival. In kind it is functional.
For series [29], the system named is A549. Kind of series: Antitumor activity against human A549 cells xenografted in BALB/c mouse model assessed as reduction in fluorescence in heart at 300 uM, iv measured after 120 mins. The series is classed as functional, organism-based.
A further series relates to L02. Description: Photosensitization activity against human L02 cells overexpressing ALP assessed as increase in fluorescence intensity at 10 uM pretreated with MgCl2 for 1 hr followed by compound addition by confocal fluorescent imaging based analysis. In kind it is functional, cell-based.
The test system of series [30] is A549. Description: Antitumor activity against human A549 cells xenografted in BALB/c mouse model assessed as reduction in fluorescence in kidney at 300 uM, iv measured after 120 mins. The series is classed as functional, organism-based.
Series [31] can be described thus: Cytotoxicity against human L02 cells assessed as survival rate measured after 12 hrs by MTT assay relative to control. The following applies: read-out: Survival. The series is classed as toxicity, cell-based.
In series [32] the test system is A549. Kind of series: Antitumor activity against human A549 cells xenografted in BALB/c mouse model assessed as reduction in fluorescence in spleen at 300 uM, iv measured after 120 mins. In kind it is functional, organism-based.
Series [33] is described as follows: Toxicity in BALB/c mouse assessed as effect on kidney at 300 uM, iv pre-irradiated with 808nm laser 1.5 W/cm2 for 10 mins and measured after 14 days by H and E staining based analysis. The series is classed as organism-based. The settings on record: in vivo, 336 h, time 14 day.

The structures appear in SMILES notation. Active and inactive are the calls of the source. No cut-off for these calls is given here. Where only a bound is given, the exact number is not on record here.

Regarding `CC[N+]1=C(/C=C/C2=C3Oc4cc(O)ccc4C=C3CCC2)C(C)(C)c2cc(Br)ccc21.[I-]`, in the series with A549 [1], the Activity is listed as greater than 85%.
For the compound `CC[N+]1=C(/C=C/C2=C3Oc4cc(O)c(Br)cc4C=C3CCC2)C(C)(C)c2cc(Br)ccc21`, the result with A549 [2], in the series on A549 [3] and with A549 [5] was Active. In the series on A549 [4], the viability at 10 µM stood at 40%. In the series with A549 [6], the viability at 20 µM is less than 20%.
For `CC[N+]1=C(/C=C/C2=C3Oc4cc(O)ccc4C=C3CCC2)C(C)(C)c2ccccc21.[I-]`, in the series with A549 [1], the Activity is reported as greater than 85%.
In the case of `CC[N+]1=C(/C=C/C2=C3Oc4cc(OP(=O)(O)O)c(Br)cc4C=C3CCC2)C(C)(C)c2cc(Br)ccc21.[I-]`, the outcome with A549 [7], in the series with A549 [8], in the series with A549 [10], in the series on A549 [3], in the series on A549 [20] and with HeLa [22] was Active. Moreover, the outcome with A549 [5], with A549 [27], with A549 [29], in the series on L02, with A549 [30] and with A549 [32] was Active. The Activity entry in [9] is reported as “Non-Toxic”; in [12] it was “Active”; in series [16], “Non-Toxic”; in [19], “Non-Toxic”; in [21], “Non-Toxic”; in [23], “Non-Toxic”. Moreover, the Activity entry in series [26] and in series [33] was “Non-Toxic” throughout. Further, the result in the series on A549 [11], in the series with A549 [15], in the series on A549 [17] and in the series on A549 [25] was inactive. The viability at 10 µM with A549 [13] and in the series with HeLa [28] was less than 40% throughout. Also, the Survival with A549 [14] and in the series with HeLa [24] was greater than 85% throughout. In addition, the AC30 result in the series with A549 [18] is “Active”. The viability at 12 h in series [31] is greater than 85%.
For `CC[N+]1=C(/C=C/C2=C3Oc4cc(O)c(Br)cc4C=C3CCC2)C(C)(C)c2ccccc21.[I-]`, the Activity in the series on A549 [1] is listed as greater than 85%.
